Reference: ChEMBL document CHEMBL1201862, “PubChem BioAssay data set” (2004)
pIC50: −log10 of the molar value. Active and inactive are the calls of the source.

What was measured:
[1] = Counterscreen for activators of the function of SWI/SNF related, matrix associated, actin dependent regulator of chromatin, subfamily a, member 2 (SMARCA2, BRM): Luminescence-based cell-based high throughput dose response assay to identify non-selective compounds using the VP16 reporter assay.; format: functional
[2] = biological target: SWI/SNF-related matrix-associated actin-dependent regulator of chromatin subfamily A member 2 (Homo sapiens, UniProt P51531); experiment: Luminescence-based cell-based high throughput dose response assay to identify activators of the function of SWI/SNF related, matrix associated, actin dependent regulator of chromatin, subfamily a, member 2 (SMARCA2, BRM).; format: functional
[3] = biological target: T1, RNA-binding protein pos-1 (Caenorhabditis elegans, UniProt G5EF15); experiment: disruptors of C. elegans POS-1 RNA interaction – biochemical, fluorescence polarization, dose response (AID 1964);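 note: purified POS-1 fused to maltose binding protein made in E. coli; potency of compounds blocking POS-1 binding to fluorescent RNA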
T1 sequence (G5EF15 whole entry): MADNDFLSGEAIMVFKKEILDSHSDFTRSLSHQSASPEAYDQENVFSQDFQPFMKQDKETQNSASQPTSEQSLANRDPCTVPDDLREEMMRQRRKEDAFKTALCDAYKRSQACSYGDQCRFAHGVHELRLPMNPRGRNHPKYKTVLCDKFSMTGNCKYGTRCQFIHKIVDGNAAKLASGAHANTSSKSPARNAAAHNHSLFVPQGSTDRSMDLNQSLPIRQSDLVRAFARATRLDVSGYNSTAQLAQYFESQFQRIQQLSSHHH

[4] = biological target: DNA dC->dU-editing enzyme APOBEC-3G (Homo sapiens, UniProt Q9HC16); format: functional;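 note: Dose-response counterscreen measuring inhibition of APOBEC3G DNA deaminase activity, run while confirming APOBEC3A inhibitors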
[5] = biological target: T2, Zinc finger protein mex-5 (Caenorhabditis elegans, UniProt Q9XUB2); experiment: potency of MEX-5 RNA-binding blockers – biochemical, C. elegans, fluorescence polarization, dose response (AID 1960)
T2 sequence (Q9XUB2 whole entry): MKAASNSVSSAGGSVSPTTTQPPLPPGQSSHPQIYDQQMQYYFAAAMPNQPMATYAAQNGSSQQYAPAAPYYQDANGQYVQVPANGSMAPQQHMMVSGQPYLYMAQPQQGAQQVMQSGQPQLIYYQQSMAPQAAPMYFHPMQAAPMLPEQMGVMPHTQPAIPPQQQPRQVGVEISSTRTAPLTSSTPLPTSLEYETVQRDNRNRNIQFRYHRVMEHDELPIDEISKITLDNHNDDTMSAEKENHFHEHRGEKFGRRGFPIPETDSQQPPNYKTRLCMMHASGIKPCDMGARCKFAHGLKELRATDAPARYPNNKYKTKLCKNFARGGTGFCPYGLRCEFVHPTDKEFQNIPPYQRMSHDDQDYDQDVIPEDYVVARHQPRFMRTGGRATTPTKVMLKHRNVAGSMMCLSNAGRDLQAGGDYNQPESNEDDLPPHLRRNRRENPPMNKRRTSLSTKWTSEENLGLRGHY

[6] = biological target: DNA dC->dU-editing enzyme APOBEC-3A (Homo sapiens, UniProt P31941); experiment: Dose Response confirmation of small molecule APOBEC3A DNA Deaminase Inhibitors via a fluorescence-based single-stranded DNA deaminase assay. [Related pubchem assays (depositor defined):AID493011, AID493024]; format: functional
Escherichia coli = experiment: microbe, parasite or virus in culture
[7] = biological target: T3, Serine/threonine-protein phosphatase (Candida dubliniensis (strain CD36 / CBS 7987 / NCPF 3949 / NRRLY-17841) (Yeast), UniProt B9W6M3); experiment: blockers of CaCl2-induced CDRE-lacZ signaling – S. cerevisiae, luminescence, secondary, dose response (AID 2388); format: functional, cell-based;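 note: yeast reporter cells carrying a calcineurin-responsive lacZ construct stimulated with calcium chloride; luminescent beta-galactosidase reporter signal in whole cells rather than isolated phosphatase activity; potency for inhibition where a drop in reporter signal means calcineurin blockade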
T3 sequence (B9W6M3 whole entry): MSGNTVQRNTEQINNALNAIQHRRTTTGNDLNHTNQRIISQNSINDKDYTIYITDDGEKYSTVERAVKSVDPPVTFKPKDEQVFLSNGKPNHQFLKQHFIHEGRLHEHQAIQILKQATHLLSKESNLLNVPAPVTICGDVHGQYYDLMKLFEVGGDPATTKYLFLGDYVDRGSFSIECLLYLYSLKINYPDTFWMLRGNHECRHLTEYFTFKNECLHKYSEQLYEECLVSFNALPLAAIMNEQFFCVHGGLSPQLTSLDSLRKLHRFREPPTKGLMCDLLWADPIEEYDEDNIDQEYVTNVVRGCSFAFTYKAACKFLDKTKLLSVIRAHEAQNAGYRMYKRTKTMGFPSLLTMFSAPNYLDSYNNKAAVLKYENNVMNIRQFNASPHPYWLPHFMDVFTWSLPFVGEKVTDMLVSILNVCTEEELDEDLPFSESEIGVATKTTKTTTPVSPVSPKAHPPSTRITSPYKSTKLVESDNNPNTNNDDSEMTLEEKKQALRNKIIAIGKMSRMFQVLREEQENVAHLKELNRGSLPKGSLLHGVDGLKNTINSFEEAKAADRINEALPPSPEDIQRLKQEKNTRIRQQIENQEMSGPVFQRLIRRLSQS

HEK293 [8] = experiment: NOD2 signaling inhibitors in MDP-stimulated cells, cell-based, uHTS, luminescence (AID 2001); format: functional; settings: Homo sapiens
[9] = biological target: Heat shock protein HSP 90-alpha (Homo sapiens, UniProt P07900); format: functional, organism-based
[10] = DRD fibroblast viability loss – cell-based, non-viral oncogenic, luminescence, dose response (AID 1934); format: functional; settings: Homo sapiens
INS1 = experiment: INS-1E survival protection against cytokine death – cell-based, luminescence, retest, dose response (AID 449756); format: functional; settings: Rattus norvegicus;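 note: cell death triggered by IL-1 beta plus TNF-alpha plus IFN-gamma mixture; protective hits raise ATP signal compared with cytokine alone wells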
HEK293 [11] = experiment: cells; format: functional, cell-based; settings: Homo sapiens
BJ [12] = experiment: BJ-TERT fibroblast viability loss – cell-based, RAS-independent, luminescence, dose response (AID 1933); format: functional; settings: Homo sapiens
Beta-galactosidase = Beta-galactosidase (Escherichia coli, UniProt Q8VNN2); format: functional
BJ [13] = experiment: cells; format: functional, cell-based; settings: Homo sapiens
[14] = biological target: T4, Kappa-type opioid receptor (Homo sapiens, UniProt P41145); format: functional
[15] = fluconazole-exposed Candida albicans growth modulators – fluorescence, retest, confirmation (AID 2467); format: functional, cell-based
BJ [16] = experiment: BJ-TERT-LT-ST fibroblast viability loss – cell-based, RAS-independent, luminescence, dose response (AID 1935); format: functional; settings: Homo sapiens;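 note: BJ fibroblasts immortalized with TERT plus LT and ST oncogenes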
HEK293 [17] = experiment: cells; format: functional, cell-based; settings: Homo sapiens; remark: listed apart in the source
[18] = biological target: ATP-dependent molecular chaperone HSP82 (Candida albicans (strain WO-1) (Yeast), UniProt C4YTQ8); experiment: steroid-induced GRE reporter decrease in yeast – S. cerevisiae, luminescence, Hsp90 inhibitor project, dose response (AID 2400); format: functional, cell-based;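 note: beta-galactosidase luminescence from glucocorticoid response element reporter as proxy for Hsp90 function; inhibitor potency where signal loss means Hsp90 inhibition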
[19] = test system: Streptococcus sp. 'group A'; experiment: Streptococcus pyogenes SK(-)GAS viability under kanamycin – luminescence, BacTiterGlo, confirmation, counter-screen for streptokinase expression inhibitor project, dose response (AID 1900); format: functional, organism-based
Streptococcus = experiment: GAS UMAA2166 growth inhibition – luminescence, BacTiterGlo, counter-screen for streptokinase expression inhibitor project, dose response (AID 1915); format: functional, organism-based;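 note: potency for reduction of bacterial viability or growth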
[20] = NIH-3T3 fibroblast cytotoxicity, dose response, cytotoxicity control, cell-based, fluorescence, Alamar Blue, secondary assay (AID 2327); format: functional;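 note: NIH-3T3 mouse fibroblasts cultured with fluconazole at 8 µg/mL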
HEK293 [21] = experiment: inhibition of NOD1-driven NF-kB reporter – cell-based, luminescence, uHTS, primary screen (AID 1578); format: functional; settings: Homo sapiens
HEK293 [22] = experiment: cells; format: functional, cell-based; settings: Homo sapiens; remark: listed apart in the source
[23] = biological target: T4, Kappa-type opioid receptor; format: functional; remark: listed apart in the source
[24] = biological target: Nucleotide-binding oligomerization domain-containing protein 2 (Homo sapiens, UniProt Q9HC29); experiment: inhibition of NOD2-driven NF-kB reporter – cell-based, luminescence, uHTS, HEK293 (AID 1566); format: functional
[25] = MIN6 cell viability loss – mouse insulinoma, cytotoxicity control, dose response (AID 2122); format: functional;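 note: confirmatory high-throughput counterscreen run to flag cytotoxic compounds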
[26] = decrease of insulin promoter-GFP reporter – imaging, high-content screening, mouse beta cells (AID 1628); format: functional; settings: MIN6
[27] = biological target: T5, COUP transcription factor 2 (Homo sapiens, UniProt P24468); experiment: Luminescence-based cell-based high throughput dose response assay to identify inhibitors of COUP-TFII (NR2F2).; format: functional;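 note: HEK293 cells transiently cotransfected with COUP-TFII expression vector and reporter; luciferase reporter luminescence driven by COUP-TFII from the pX2-168 reporter plasmid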
T5 sequence (P24468 whole entry): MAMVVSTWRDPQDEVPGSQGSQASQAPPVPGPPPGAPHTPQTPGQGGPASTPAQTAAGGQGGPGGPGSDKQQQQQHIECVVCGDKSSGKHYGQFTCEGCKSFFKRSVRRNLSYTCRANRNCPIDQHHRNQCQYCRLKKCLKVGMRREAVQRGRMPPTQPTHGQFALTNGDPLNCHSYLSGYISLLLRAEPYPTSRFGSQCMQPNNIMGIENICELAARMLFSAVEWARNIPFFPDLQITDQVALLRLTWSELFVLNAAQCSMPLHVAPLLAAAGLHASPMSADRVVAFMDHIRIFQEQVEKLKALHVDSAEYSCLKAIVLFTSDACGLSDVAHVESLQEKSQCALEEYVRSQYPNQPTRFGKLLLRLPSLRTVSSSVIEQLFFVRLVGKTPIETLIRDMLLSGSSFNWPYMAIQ

[28] = HEK-293T viability loss after treatment – luminescence, T-cell screen hits, cytotoxicity control for TCR NF-kB inhibitor project, dose response (AID 489026); format: functional, cell-based;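 note: cells exposed to compound about 14 hours before the viability readout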
[29] = activation of miR-122 Renilla sensor silencing – cell-based, Huh7 psiCHECK-miR122, Renilla luciferase, cherry-picked, dose response (AID 651956); format: functional;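 note: huh7 hepatoma cells stably carrying a psiCHECK-2 miR-122 sensor plasmid; renilla luciferase signal reporting endogenous miR-122 activity after 48 h compound exposure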
[30] = general mammalian cell viability loss – inhibitor set, cherry-pick, set 2, cytotoxicity control for miR-122 modulator project, dose response (AID 720697); format: functional, cell-based

T4 sequence (P41145 whole entry): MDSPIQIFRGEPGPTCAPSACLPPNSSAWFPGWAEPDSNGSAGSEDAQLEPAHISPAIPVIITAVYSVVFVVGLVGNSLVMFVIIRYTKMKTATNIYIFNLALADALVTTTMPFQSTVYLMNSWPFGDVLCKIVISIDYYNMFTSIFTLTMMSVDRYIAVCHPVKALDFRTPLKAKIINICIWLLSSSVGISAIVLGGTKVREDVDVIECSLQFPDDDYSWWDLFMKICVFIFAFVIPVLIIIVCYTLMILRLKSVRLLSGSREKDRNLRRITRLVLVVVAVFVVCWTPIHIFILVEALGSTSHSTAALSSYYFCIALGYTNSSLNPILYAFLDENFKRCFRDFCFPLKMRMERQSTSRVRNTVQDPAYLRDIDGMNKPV
ATP-dependent molecular chaperone HSP82, sequence (C4YTQ8 whole entry): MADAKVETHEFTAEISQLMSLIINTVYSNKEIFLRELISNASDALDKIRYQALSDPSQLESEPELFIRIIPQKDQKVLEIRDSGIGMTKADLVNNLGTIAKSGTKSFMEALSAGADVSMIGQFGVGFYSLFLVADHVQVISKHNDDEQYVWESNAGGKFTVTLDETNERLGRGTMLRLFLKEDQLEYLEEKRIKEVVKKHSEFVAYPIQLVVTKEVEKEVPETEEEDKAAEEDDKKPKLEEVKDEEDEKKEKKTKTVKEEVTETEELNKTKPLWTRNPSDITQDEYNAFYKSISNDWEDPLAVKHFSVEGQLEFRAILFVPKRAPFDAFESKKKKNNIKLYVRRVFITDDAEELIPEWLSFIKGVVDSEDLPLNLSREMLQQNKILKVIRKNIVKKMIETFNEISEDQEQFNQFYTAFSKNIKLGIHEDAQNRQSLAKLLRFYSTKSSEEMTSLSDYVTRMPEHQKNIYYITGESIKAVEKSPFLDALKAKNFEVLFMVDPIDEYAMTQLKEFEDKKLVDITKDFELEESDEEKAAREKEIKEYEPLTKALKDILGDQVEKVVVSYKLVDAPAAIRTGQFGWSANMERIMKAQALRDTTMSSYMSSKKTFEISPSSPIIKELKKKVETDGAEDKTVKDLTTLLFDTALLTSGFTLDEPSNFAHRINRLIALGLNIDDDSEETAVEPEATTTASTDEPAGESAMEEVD
Beta-galactosidase, sequence (Q8VNN2 whole entry): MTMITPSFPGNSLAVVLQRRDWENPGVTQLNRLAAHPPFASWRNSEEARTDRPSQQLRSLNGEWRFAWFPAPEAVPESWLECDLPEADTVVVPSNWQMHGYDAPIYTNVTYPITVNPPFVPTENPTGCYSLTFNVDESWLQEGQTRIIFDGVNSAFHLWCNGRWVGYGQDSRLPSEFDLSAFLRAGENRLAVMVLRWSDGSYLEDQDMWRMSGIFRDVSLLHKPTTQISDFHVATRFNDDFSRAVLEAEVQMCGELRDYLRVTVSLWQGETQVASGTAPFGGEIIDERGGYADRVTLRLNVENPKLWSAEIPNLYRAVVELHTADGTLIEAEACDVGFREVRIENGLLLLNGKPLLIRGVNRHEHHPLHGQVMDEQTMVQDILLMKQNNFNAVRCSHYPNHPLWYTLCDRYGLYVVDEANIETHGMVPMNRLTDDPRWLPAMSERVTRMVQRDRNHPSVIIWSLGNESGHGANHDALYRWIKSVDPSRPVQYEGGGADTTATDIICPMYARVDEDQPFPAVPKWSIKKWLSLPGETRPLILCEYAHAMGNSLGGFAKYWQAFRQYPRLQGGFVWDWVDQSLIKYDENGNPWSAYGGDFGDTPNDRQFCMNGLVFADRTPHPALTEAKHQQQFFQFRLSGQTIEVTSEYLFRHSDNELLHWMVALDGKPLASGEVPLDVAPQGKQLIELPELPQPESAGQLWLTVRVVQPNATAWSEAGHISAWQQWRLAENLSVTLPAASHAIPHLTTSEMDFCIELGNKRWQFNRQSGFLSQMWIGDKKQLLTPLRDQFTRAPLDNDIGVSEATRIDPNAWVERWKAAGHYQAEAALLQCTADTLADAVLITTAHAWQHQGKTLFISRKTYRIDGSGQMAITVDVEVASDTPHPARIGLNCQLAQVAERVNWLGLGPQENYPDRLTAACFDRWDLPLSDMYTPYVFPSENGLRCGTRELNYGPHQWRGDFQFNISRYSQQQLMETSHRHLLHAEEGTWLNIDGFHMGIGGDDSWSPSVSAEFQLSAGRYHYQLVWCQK
Nucleotide-binding oligomerization domain-containing protein 2, sequence (Q9HC29 whole entry, the tested form may be a part): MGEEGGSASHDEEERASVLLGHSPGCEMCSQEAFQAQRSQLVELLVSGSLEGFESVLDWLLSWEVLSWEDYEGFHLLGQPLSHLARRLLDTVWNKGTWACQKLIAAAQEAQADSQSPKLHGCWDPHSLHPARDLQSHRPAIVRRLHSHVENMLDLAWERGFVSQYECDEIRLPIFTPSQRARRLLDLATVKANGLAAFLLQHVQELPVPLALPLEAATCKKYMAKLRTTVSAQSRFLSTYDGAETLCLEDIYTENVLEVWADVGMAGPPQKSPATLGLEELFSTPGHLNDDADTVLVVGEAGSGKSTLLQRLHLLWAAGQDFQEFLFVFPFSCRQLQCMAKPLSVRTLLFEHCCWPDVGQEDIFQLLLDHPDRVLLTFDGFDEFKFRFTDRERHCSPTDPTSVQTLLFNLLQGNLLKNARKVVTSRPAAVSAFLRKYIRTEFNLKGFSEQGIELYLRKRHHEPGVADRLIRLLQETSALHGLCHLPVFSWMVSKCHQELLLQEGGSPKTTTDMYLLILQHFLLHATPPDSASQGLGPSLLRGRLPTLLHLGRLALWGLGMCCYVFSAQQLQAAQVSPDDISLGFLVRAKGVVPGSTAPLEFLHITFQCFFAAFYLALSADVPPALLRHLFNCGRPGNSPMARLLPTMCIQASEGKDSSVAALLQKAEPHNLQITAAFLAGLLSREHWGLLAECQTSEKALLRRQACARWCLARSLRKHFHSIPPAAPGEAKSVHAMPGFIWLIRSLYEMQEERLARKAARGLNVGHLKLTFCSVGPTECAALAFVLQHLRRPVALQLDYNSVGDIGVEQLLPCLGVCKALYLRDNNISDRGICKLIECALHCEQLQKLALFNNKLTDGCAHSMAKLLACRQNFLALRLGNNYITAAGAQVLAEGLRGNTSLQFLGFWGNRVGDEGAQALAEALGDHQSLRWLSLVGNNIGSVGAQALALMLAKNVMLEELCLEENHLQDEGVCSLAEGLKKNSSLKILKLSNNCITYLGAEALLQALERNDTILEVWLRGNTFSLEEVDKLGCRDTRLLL
DNA dC->dU-editing enzyme APOBEC-3A, sequence (P31941 whole entry): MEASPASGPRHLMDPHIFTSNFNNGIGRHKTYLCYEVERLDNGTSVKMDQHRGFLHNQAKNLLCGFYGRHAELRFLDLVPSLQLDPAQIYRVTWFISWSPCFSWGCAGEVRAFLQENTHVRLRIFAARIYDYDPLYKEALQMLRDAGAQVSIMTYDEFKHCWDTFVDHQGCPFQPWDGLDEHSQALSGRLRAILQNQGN
SWI/SNF-related matrix-associated actin-dependent regulator of chromatin subfamily A member 2, sequence (P51531 whole entry, the tested form may be a part): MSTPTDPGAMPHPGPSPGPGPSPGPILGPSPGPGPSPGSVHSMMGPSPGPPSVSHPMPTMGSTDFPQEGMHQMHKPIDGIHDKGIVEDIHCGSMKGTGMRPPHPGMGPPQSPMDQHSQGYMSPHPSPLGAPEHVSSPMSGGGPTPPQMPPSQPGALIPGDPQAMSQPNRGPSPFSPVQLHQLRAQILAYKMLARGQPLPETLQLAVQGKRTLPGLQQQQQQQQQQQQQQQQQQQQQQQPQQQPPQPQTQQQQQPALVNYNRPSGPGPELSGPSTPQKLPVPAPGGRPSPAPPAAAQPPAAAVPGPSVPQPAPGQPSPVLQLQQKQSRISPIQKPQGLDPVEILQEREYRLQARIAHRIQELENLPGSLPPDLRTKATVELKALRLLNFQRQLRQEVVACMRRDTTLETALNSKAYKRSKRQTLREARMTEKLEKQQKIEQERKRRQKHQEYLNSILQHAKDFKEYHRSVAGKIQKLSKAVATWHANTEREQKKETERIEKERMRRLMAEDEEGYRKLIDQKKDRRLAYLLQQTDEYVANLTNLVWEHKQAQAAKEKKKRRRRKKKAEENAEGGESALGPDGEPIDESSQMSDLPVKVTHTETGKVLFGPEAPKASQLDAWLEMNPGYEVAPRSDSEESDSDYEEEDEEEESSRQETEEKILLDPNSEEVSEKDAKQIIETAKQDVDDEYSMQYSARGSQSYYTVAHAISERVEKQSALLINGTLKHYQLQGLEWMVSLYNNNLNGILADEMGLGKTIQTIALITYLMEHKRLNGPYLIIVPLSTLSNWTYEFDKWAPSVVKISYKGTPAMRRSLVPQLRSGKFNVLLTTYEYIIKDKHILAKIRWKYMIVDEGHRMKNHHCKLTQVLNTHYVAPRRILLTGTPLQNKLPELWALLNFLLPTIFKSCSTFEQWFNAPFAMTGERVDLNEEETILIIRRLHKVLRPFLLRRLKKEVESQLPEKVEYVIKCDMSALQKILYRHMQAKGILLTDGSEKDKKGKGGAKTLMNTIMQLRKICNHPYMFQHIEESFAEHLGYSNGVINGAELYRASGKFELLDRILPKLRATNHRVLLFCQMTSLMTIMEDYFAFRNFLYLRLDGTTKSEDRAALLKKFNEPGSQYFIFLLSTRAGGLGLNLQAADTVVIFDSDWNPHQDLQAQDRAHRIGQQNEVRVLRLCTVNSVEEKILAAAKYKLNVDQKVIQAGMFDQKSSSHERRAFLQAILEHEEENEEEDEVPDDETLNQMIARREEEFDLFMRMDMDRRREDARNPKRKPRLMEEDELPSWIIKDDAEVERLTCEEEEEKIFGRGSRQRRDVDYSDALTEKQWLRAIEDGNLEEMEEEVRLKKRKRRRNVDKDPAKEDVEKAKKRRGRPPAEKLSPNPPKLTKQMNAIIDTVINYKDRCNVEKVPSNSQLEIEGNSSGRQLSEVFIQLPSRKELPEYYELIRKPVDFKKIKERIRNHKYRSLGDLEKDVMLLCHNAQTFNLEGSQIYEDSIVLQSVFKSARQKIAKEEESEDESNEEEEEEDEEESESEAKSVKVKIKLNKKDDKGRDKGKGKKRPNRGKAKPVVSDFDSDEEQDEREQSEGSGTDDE

## Cc1ccc(N=Nc2[nH]c3ccccc3c2O)cc1
[1]
  EC50: > 91.1 µM (inactive)
[2]
  EC50: > 91.1 µM (inactive)
[3]
  EC50: 16 µM (active)
[4]
  IC50: 7.69 µM (active)
[5]
  EC50: 25.7 µM (inconclusive)
[6]
  IC50: 4.8 µM (active)

## COCCn1c(-c2cccc([N+](=O)[O-])c2)nc2c1c(=O)[nH]c(=O)n2Cc1ccccc1
Escherichia coli
  AC50: > 380 µM (inactive)

## COc1cccc(N=Nc2ccc3cccnc3c2O)c1
[7]
  EC50: > 180 µM (inactive)
HEK293 [8]
  IC50: 3.15 µM (inactive)
[9]
  AC50: 5.71 µM (active)
[10]
  EC50: 10.5 µM (active)
INS1
  AC50: 2.26 µM (active)
HEK293 [11]
  IC50: > 20 µM (inactive)
BJ [12]
  EC50: 6.69 µM (inconclusive)
Beta-galactosidase
  EC50: 22 µM (active)
BJ [13]
  EC50: 16.9 µM (inconclusive)
[14]
  IC50: 5.92 µM (active)
[15]
  EC50: 0.619 µM (active)
BJ [16]
  EC50: 3.73 µM (inconclusive)
HEK293 [17]
  IC50: 5.21 µM (active)
[18]
  EC50: 4.9 µM (active)
[19]
  EC50: 0.068 µM (active)
Streptococcus
  EC50: 2.53 µM (active)
[20]
  EC50: 87.8 µM (active)
HEK293 [21]
  EC50: > 20 µM (inactive)
HEK293 [22]
  IC50: > 20 µM (inactive)
[23]
  pIC50: < 4.49
[24]
  EC50: > 20 µM (inactive)

## Cc1nnc(C)c2c(C)n(C(C)c3ccccc3)c(C)c12 (stereo not drawn)
[25]
  IC50: 2.6 µM (active)
[26]
  IC50: 2.5 µM (active)

## CCO/C(O)=C1\C(C)=NC(=S)NC1c1cc(C)sc1C (stereo not drawn)
Escherichia coli
  AC50: 147 µM (active)

## CCCCn1c2c(c(=N)c3c1CCC3)CCC2
[25]
  IC50: 1.97 µM (active)
[26]
  IC50: 1.47 µM (active)
[27]
  IC50: 19.1 µM (inactive)
[28]
  IC50: > 80 µM (inactive)

## COc1cc(-c2nnc3sc(C4CCCCC4)nn23)cc(OC)c1OC
[25]
  IC50: 9.75 µM (active)
[26]
  IC50: 0.981 µM (active)
[29]
  AC50: 55.5 µM (active)
[30]
  AC50: 1.08 µM (active)

## CCSc1nnc(-c2ccc(C)cc2)c2ccccc12
[7]
  EC50: 24.7 µM (active)
[15]
  EC50: 0.305 µM (active)
[18]
  EC50: 62.4 µM (active)
[20]
  EC50: 17.2 µM (active)
